Experimental data published in patent US7425548B2, “Materials and methods for immune system stimulation” (Variety Chidren's Hospital, priority 2004, dated 2008).

Assays:
[1] = test system: RAW264.7 macrophages; test: Opsonized binding and phagocytosis of FITC-zymosan A bioparticles; format: cell-based, mouse; details: 37° C.
Description: Monocytes were incubated with RR1 at 37° C. for 1 hour followed by FITC-labeled zymosan A bioparticles for another 1 hour at 37° C. The cells were washed and intracellular fluorescence measured in a Coulter Elite Flow cytometer.
Opsonized binding and Phagocytosis. To determine the effect of RR1 and laminarin on opsonized binding and phagocytosis of zymosan A particles, RAW 264.7 cells were treated with RR1 or laminarin (0 and 500 μg/ml) in DMEM at 37° C. for 1 hour. This will ensure the release of opsonins and facilitate opsonic binding. The cells were washed with PBS twice and incubated with zymosan A-FITC bioparticles at a ratio of 25 particles/cell at 37° C. for 1 hour. The cells were suspended in PBS after removing the unbound zymosan particles by extensive washing with the medium, and the intracellular fluorescence analyzed in a Coulter Elite flow cytometer. The fluorescence intensity was expressed as percentage of control.

[2] = test system: RAW 264.7 cells; test: RR1-induced TNF-α synthesis with and without CAPE, ELISA; format: cell-based, mouse; details: CAPE 10 μg/ml for 1 hour prior to RR1, all RR1 concentrations
Description: The cells were pre-incubated with 10 μg/ml CAPE for 1 hour in 0.5% FBS containing DMEM medium and replaced with medium containing RR1 at varying concentrations for 4 hour at 37° C. The medium was analyzed for secreted TNF-α using ELISA protocol.
RR1-induced TNF-α synthesis. RAW 264.7 cells (0.5×10^6/ml) were plated on 6-well plates with DMEM medium containing 0.5% FBS (starvation). Once the cells were attached, medium was replaced, RR1 was added at 0, 100, 500 and 1000 μg/ml doses and incubated at 37° C. for 24 hours. The medium was analyzed for the secreted TNF-α using the ELISA kit (BD BIOSCIENCES kit, San Jose, Calif.) based on the manufacturer's protocol.
To determine the effect of NF-κB inhibitor CAPE on TNF-α synthesis, RAW 264.7 cells were treated with 10 μg/ml of CAPE for 1 hour at 37° C. followed by treatment with RR1 (0-1000 μg/ml) overnight in the incubator. The secreted TNF-α in the medium was analyzed using ELISA (BD BIOSCIENCES, San Jose, Calif.).

| inhibitory effect on opsonized binding and phagocytosis of zymosan A bioparticles ([1]; 500 μg/ml, 1 hour) | inhibition of zymosan bioparticle internalization ([1]; opsonized) | Molecule | effect on RR1-induced TNF-α synthesis [2] |
| --- | --- | --- | --- |
| absolute inhibitory effect | about 90% | Laminarin [reference compound] |  |
|  |  | O=C(/C=C/c1ccc(O)c(O)c1)OCCc1ccccc1 [CAPE, caffeic acid phenethyl ester, reference compound] | completely inhibited |
